In experiment [1] the test system is TNF-alpha release in THP-1 cells. Description: LPS-induced TNF-alpha release in THP-1 cells. Format: cell-based. The settings on record: Homo sapiens, THP-1, LPS-stimulated THP-1 cells; read-out: 50% inhibition in the LPS-induced TNF-alpha release in THP-1 cells assay at concentrations within the range. The essentials:
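Undifferentiated THP-1 monocytes (1×10^6 cells/ml, 1% FCS) preincubated 1 h at 37° C with compound (1×10^−9 to 1×10^−6 M, 0.3% DMSO), then stimulated with LPS (20 μg/ml) for 18 h. Supernatant TNF-alpha measured by sandwich ELISA (TMB read-out), interpolated from a log/log standard curve (0.125-16 ng/ml).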

In experiment [2] the target is T1, Inactive N-terminal His6 tagged murine P38 (Mus musculus, UniProt P47811).
T1 construct: His6 (N); made in house
Briefly: p38 cascade assay (HTRF; inactive p38 activated by MKK-6, ATF-2 phosphorylation). Format: biochemical. Conditions: inactive p38 preincubated with compound, then MKK-6, ATF-2, ATP; read-out: 50% inhibition in the p38 cascade assay at concentrations within the range. Here is the method:
The homogeneous time resolved fluorescence method (HTRF) assay measured the phosphorylation of human activating transcription factor (ATF)-2 protein by P38 following activation by MKK-6 and was run in A384 well plate format. […] MBP-tagged mouse MKK-6 (final concentration 50 nM), GST-tagged ATF-2 (fmal concentration 200 nM) and ATP (final concentration 50 μM) were then added and the incubation continued for 90 min. p38, MKK-6 and ATF-2 were prepared in the Protein Production Group, Aventis Pharmaceuticals. XL665 labeled anti-GST antibody (Cis Bio International) and cryptate labeled anti-pbospho-ATF2 antibody (Cis Bio International) were then added to generate the specific signal proportional to the phosphorylation of the substrate. The close proximity of XL665 labeled anti-GST antibody/phosphorylated GST-ATF2 complex and the cryptate labeled anti-phospho-ATF2 antibody results in a fluorescence transfer from cryptate to XL665. The resulting fluorescence signal was than read on a LJL Acquest set at multi-method mode using a fluorescence filter set (E=360 nm, Em=615/665 nm) with UV dichroic mirror (Integration time: 300000 μs). The results are reported as IC50 values. Compounds were tested over the concentration range of 3×10^−10M to 3×10^−5M.

pIC50: −log10 of the molar value.

T1 sequence (P47811 whole entry): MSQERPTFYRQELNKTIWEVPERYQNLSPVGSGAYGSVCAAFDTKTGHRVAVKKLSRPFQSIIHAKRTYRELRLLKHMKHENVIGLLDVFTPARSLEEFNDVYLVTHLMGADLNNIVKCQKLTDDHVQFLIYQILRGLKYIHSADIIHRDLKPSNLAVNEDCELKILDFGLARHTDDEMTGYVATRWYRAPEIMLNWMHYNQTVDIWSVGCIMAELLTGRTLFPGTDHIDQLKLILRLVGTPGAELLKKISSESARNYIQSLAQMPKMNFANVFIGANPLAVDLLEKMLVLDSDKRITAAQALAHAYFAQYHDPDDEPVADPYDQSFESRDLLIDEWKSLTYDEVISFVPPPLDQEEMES

Consider `Cc1ccc(-n2nc(C(C)(C)C)cc2NC(=O)Nc2ccc(CC3CCN(C(=O)c4occc4C)CC3)cc2)cc1` [Compound A289, 1-(5-tert-Butyl-2-p-tolyl-2H-pyrazol-3-yl)-3-{4-[1-(3-methyl-furan-2-carbonyl)-piperidin-4-ylmethyl]-phenyl}-urea], for which the pIC50 in experiment [1] was 6.30 to 8.00; in experiment [2], 7.00 to 8.00.
`COc1ccc(OC)c(C(=O)N2CCC(Cc3cccc(NC(=O)Nc4cc(C(C)(C)C)nn4-c4ccc(C)cc4)c3)CC2)c1` [Compound A1636, 1-(5-tert-Butyl-2-p-tolyl-2H-pyrazol-3-yl)-3-{3-[1-(2,5-dimethoxy-benzoyl)-piperidin-4-ylmethyl]-phenyl}-urea]: the pIC50 was 6.30 to 8.00 in experiment [1] and 7.00 to 8.00 in experiment [2].
With `Cc1ccc(-n2nc(C(C)(C)C)cc2NC(=O)Nc2ccc(CC3CCN(C(=O)OCC(C)C)CC3)cc2)cc1` [Compound A1625, 4-{4-[3-(5-tert-Butyl-2-p-tolyl-2H-pyrazol-3-yl)-ureido]-benzyl}-piperidine-1-carboxylic acid isobutyl ester], the pIC50 in experiment [1] is 6.30 to 8.00; in experiment [2], 7.00 to 8.00.
The matching figures for `CC(=O)NCC(=O)N1CCC(Cc2cccc(NC(=O)Nc3cc(C(C)(C)C)nn3-c3ccc(C)cc3)c2)CC1` [Compound A179, N-[2-(4-{3-[3-(5-tert-Butyl-2-p-tolyl-2H-pyrazol-3-yl)-ureido]-benzyl}-piperidin-1-yl)-2-oxo-ethyl]-acetamide]: 6.30 to 8.00 and 7.00 to 8.00.
`Cc1ccc(-n2nc(C(C)(C)C)cc2NC(=O)Nc2cccc(CC3CCN(C(=O)c4cccnc4Cl)CC3)c2)cc1` [Compound A42, 1-(5-tert-Butyl-2-p-tolyl-2H-pyrazol-3-yl)-3-{3-[1-(2-chloro-pyridine-3-carbonyl)-piperidin-4-ylmethyl]-phenyl}-urea]: the figures for the pIC50 in experiment [1] and in experiment [2] were 6.30 to 8.00 and 7.00 to 8.00, respectively.
With `Cc1ccc(-n2nc(C(C)(C)C)cc2NC(=O)Nc2cccc(CC3CCN(C(=O)c4csc(-c5cccnc5)n4)CC3)c2)cc1` [Compound A32, 1-(5-tert-Butyl-2-p-tolyl-2H-pyrazol-3-yl)-3-{3-[1-(2-pyridin-3-yl-thiazole-4-carbonyl)-piperidin-4-ylmethyl]-phenyl}-urea], the pIC50 in experiment [1] was 6.30 to 8.00; in experiment [2], 7.00 to 8.00.
The matching figures for `Cc1ccc(-n2nc(C(C)(C)C)cc2NC(=O)Nc2ccc(CC3CCN(C(=O)c4ccc5[nH]ccc5c4)CC3)cc2)cc1` [Compound A361, 1-(5-tert-Butyl-2-p-tolyl-2H-pyrazol-3-yl)-3-{4-[1-(1H-indole-5-carbonyl)-piperidin-4-ylmethyl]-phenyl}-urea]: 6.30 to 8.00 and 7.00 to 8.00.
Turning to `Cc1ccc(-n2nc(C(C)(C)C)cc2NC(=O)Nc2cccc(CC3CCN(C(=O)c4cccnc4)CC3)c2)cc1` [Compound A181, 1-(5-tert-Butyl-2-p-tolyl-2H-pyrazol-3-yl)-3-{3-[1-(pyridine-3-carbonyl)-piperidin-4-ylmethyl]-phenyl}-urea], the pIC50 is 6.30 to 8.00 in experiment [1] and 7.00 to 8.00 in experiment [2].
With `Cc1ccc(-n2nc(C(C)(C)C)cc2NC(=O)Nc2cccc(CC3CCN(C(=O)c4cccnc4C)CC3)c2)cc1` [Compound A59, 1-(5-tert-Butyl-2-p-tolyl-2H-pyrazol-3-yl)-3-{3-[1-(2-methyl-pyridine-3-carbonyl)-piperidin-4-ylmethyl]-phenyl}-urea], the pIC50 is 6.30 to 8.00 in experiment [1] and 7.00 to 8.00 in experiment [2].
Take `COCC(=O)N1CCC(Cc2ccc(NC(=O)Nc3cc(C(C)(C)C)nn3-c3ccc(C)cc3)cc2)CC1` [Compound A367, 1-(5-tert-Butyl-2-p-tolyl-2H-pyrazol-3-yl)-3-{4-[1-(2-methoxy-acetyl)-piperidin-4-ylmethyl]-phenyl}-urea]: the pIC50 was 6.30 to 8.00 in experiment [1] and 7.00 to 8.00 in experiment [2].
The matching figures for `Cc1ccc(-n2nc(C(C)(C)C)cc2NC(=O)Nc2ccc(CC3CCN(S(C)(=O)=O)CC3)cc2)cc1` [Compound A608, 1-(5-tert-Butyl-2-p-tolyl-2H-pyrazol-3-yl)-3-[4-(1-methanesulfonyl-piperidin-4-ylmethyl)-phenyl]-urea]: 6.30 to 8.00 and 7.00 to 8.00.
On to `Cc1ccc(-n2nc(C(C)(C)C)cc2NC(=O)Nc2cccc(CC3CCN(C(=O)c4ccc(C)s4)CC3)c2)cc1` [Compound A137, 1-(5-tert-Butyl-2-p-tolyl-2H-pyrazol-3-yl)-3-{3-[1-(5-methyl-thiophene-2-carbonyl)-piperidin-4-ylmethyl]-phenyl}-urea], for which the pIC50 was 6.30 to 8.00 in experiment [1] and 7.00 to 8.00 in experiment [2].
Regarding `Cc1ccc(-n2nc(C(C)(C)C)cc2NC(=O)Nc2ccc(CC3CCN(C(=O)c4cccnc4)CC3)cc2)cc1` [Compound A377, 1-(5-tert-Butyl-2-p-tolyl-2H-pyrazol-3-yl)-3-{4-[1-(pyridine-3-carbonyl)-piperidin-4-ylmethyl]-phenyl}-urea], the pIC50 is 6.30 to 8.00 in experiment [1] and 7.00 to 8.00 in experiment [2].
Take `Cc1ccc(-n2nc(C(C)(C)C)cc2NC(=O)Nc2ccc(CC3CCN(C(=O)OCc4ccccc4)CC3)cc2)cc1` [Compound A1610, 4-{4-[3-(5-tert-Butyl-2-p-tolyl-2H-pyrazol-3-yl)-ureido]-benzyl}-piperidine-1-carboxylic acid benzyl ester]: the pIC50 is 6.30 to 8.00 in experiment [1] and 7.00 to 8.00 in experiment [2].
On to `Cc1ccc(-n2nc(C(C)(C)C)cc2NC(=O)Nc2ccc(CC3CCN(C(=O)CNC(=O)c4ccccc4)CC3)cc2)cc1` [Compound A352, N-[2-(4-{4-[3-(5-tert-Butyl-2-p-tolyl-2H-pyrazol-3-yl)-ureido]-benzyl}-piperidin-1-yl)-2-oxo-ethyl]-benzamide], for which the pIC50 in experiment [1] was 6.30 to 8.00; in experiment [2], 7.00 to 8.00.
Regarding `COc1ccc(OC)c(C(=O)N2CCC(Cc3ccc(NC(=O)Nc4cc(C(C)(C)C)nn4-c4ccc(C)cc4)cc3)CC2)c1` [Compound A220, 1-(5-tert-Butyl-2-p-tolyl-2H-pyrazol-3-yl)-3-{4-[1-(2,5-dimethoxy-benzoyl)-piperidin-4-ylmethyl]-phenyl}-urea], the values for the pIC50 in experiment [1] and in experiment [2] were 6.30 to 8.00 and 7.00 to 8.00, respectively.
With `Cc1ccc(-n2nc(C(C)(C)C)cc2NC(=O)Nc2ccc(CC3CCN(C(=O)CCOc4ccccc4)CC3)cc2)cc1` [Compound A292, 1-(5-tert-Butyl-2-p-tolyl-2H-pyrazol-3-yl)-3-{4-[1-(3-phenoxy-propionyl)-piperidin-4-ylmethyl]-phenyl}-urea], the values for the pIC50 in experiment [1] and in experiment [2] were 6.30 to 8.00 and 7.00 to 8.00, respectively.
Regarding `Cc1ccc(-n2nc(C(C)(C)C)cc2NC(=O)Nc2cccc(CC3CCN(C(=O)C4(C)CC4)CC3)c2)cc1` [Compound A16, 1-(5-tert-Butyl-2-p-tolyl-2H-pyrazol-3-yl)-3-{3-[1-(1-methyl-cyclopropanecarbonyl)-piperidin-4-ylmethyl]-phenyl}-urea], the pIC50 in experiment [1] was 6.30 to 8.00; in experiment [2], 7.00 to 8.00.
`Cc1ccc(-n2nc(C(C)(C)C)cc2NC(=O)Nc2cccc(CC3CCN(C(=O)Cc4ccccc4F)CC3)c2)cc1` [Compound A43, 1-(5-tert-Butyl-2-p-tolyl-2H-pyrazol-3-yl)-3-(3-{1-[2-(2-fluoro-phenyl)-acetyl]-piperidin-4-ylmethyl}-phenyl)-urea]: the pIC50 in experiment [1] was 6.30 to 8.00; in experiment [2], 7.00 to 8.00.

(Values after patent US7541368B2, “Pyrazoles as inhibitors of tumor necrosis factor” (Aventis Pharmaceuticals Inc., priority 2003, dated 2009).)
